Results on 4 compounds are retold here after patent US20220264887A1, “Foam Formulations For Decontamination Of Surfaces With Minimum Wastewater” (The Trustees of Columbia University in the City of New York, priority 2020, published 2022).

Holding throughout (format): physicochemical
Data set [1] can be described thus: Surface tension / CMC of surfactants and mixtures by tensiometer, with and without hypochlorite. Particulars: for No hypochlorite (CMC): after 24 hours of preparation; for change of CMC value in the presence of hypochlorite: presence vs absence of hypochlorite. How it is done:
Thus, the foam formulations were stable in terms of surfactants retaining their surface activity for the foam-deployment-on-surface application.
The surface tension values for pure surfactants and their mixtures—formulations—were determined in the presence and absence of hypochlorite (Table 1). […] The surface tension values for CAPB, taurate, SDS, and surfactin determined after 24 hours of preparation of these solutions, and in the absence and presence of hypochlorite are given in Table 1 and FIGS. 1, 2, and 3; Taurate was used for fundamental reasons and was not considered in preparing the final formulation(s). (The surface tension values were determined using a tensiometer.)
(§1) The CMC values for these surfactants in the absence of hypochlorite, were as reported in the literature. […] A chlorine strip was used to determine hypochlorite degradation.

Data set [2] is described as follows: Raman microscopy of hypochlorite degradation (ClO-/ClO4- peak ratio). The settings on record: freshly prepared 1% solution in water. The source says: To monitor degradation of hypochlorite in the formulations (liquids), foams, and deposit residues, one can use Raman microscopy. Raman spectra were acquired using a Horiba Aramis confocal Raman microscope with a 10× objective (numerical aperture 0.25), a 1200 grooves/mm diffraction grating, and a 17-mW 633-nm HeNe laser without attenuation. The monochromator was calibrated before each set of measurements using the Si peak at 520.7 cm-1 of a Si wafer reference sample.
The degradation of hypochlorite ion (ClO—) was assessed by the intensity ratio of the main Raman peaks of ClO— at 715 cm-1 and perchlorate ClO4- at 937 cm-1 (FIG. 8). Perchlorate is a product of the final degradation of hypochlorite.

Data set [3] is described as follows: Hypochlorite degradation in formulation by chlorine strip. Particulars: after 24 hrs.
From the text: as §1

The mark [4] stands for this setting: presence of hypochlorite 0.7-1 wt. % CL.

Turning to cocamidopropyl betaine [CAPB], in data set [1] (absence of hypochlorite), the Min surface tension was found to be 28 mN/m and the “No hypochlorite (CMC)” value was 0.3 g/L. Besides, in data set [1] (setting [4]), the “0.7-1% hypochlorite (CMC)” value was found to be 0.31 g/L and the Min surface tension was 28 mN/m. Also, the “change of CMC value in the presence of hypochlorite” value (“change of CMC value” below) in data set [1] is listed as “a small decrease or no change”.

On to `CCCCCCCCCCCCOS(=O)(=O)[O-].[Na+]` [SDS, Sodium dodecyl sulfate], for which, in data set [1] (absence of hypochlorite), the Min surface tension is reported as 28 mN/m and the “No hypochlorite (CMC)” value was found to be 2.4 g/L. For the same compound, in data set [1] (setting [4]), the “0.7-1% hypochlorite (CMC)” value is on record as 2.6 g/L and the Min surface tension is 28 mN/m. In addition, the “change of CMC value” value in data set [1] is “increased slightly”.

For the compound `NCCS(=O)(=O)O` [Taurate], in data set [1], the “change of CMC value” value is on record as “increased slightly”.

Turning to `[Na+].[O-]Cl` [hypochlorite, sodium hypochlorite], the “ClO-/ClO4- Raman peak ratio” value in data set [2] is recorded as “about 2”. Moreover, the “fraction of hypochlorite already degraded” value in data set [2] (from peak ratio) is reported as “about 30%”. Also, the “decrease of hypochlorite concentration in the formulation” value in data set [3] was 30-40%.
